{"source": "patent US20210038579A1", "about": "“Treatment Of Patients With Classic Fabry Disease” (Amicus Therapeutics, Inc., priority 2018, published 2021)", "experiment": "Phase 3 study, ERT-naïve Fabry patients: Gastrointestinal Symptoms Rating Scale for Diarrhea (GSRS-D)", "type": "in vivo, human", "details": "for mean change in GSRS-D: total amenable patient population", "method": "Patient Enrollment. […] Study Design. […] Patient-Reported Outcomes. Patient-reported outcomes were assessed using the Gastrointestinal-Symptoms-Rating-Scale (GSRS), Short Form-36v2TM and Brief-Pain-Inventory-Pain-Severity-Component. For all outcomes except GL-3 inclusions per kidney interstitial capillary, data are pooled for patients within phenotype subgroups regardless of treatment allocation for the first six months (migalastat or placebo)."}
{"smiles": "OC[C@H]1NC[C@H](O)[C@@H](O)[C@H]1O", "note": "[migalastat]", "values": [{"measurement": "classic male patients with diarrhea at baseline achieving MCID reduction of 0.33 in GSRS-D", "setting": "7 of the 8 patients, by 24 months", "result": 88, "unit": "%"}, {"measurement": "mean (SD) change from baseline (or month 6) in diarrhea symptoms (GSRS-D)", "setting": "classic male patients, by 24 months", "result": "−0.9 (1.75)"}, {"measurement": "mean (SD) change in GSRS-D", "setting": "other patients, month 24", "result": "−0.5 (1.01)"}, {"measurement": "mean change in GSRS-D", "setting": "month 6", "result": "−0.3"}, {"measurement": "mean change in GSRS-D", "setting": "month 24", "result": "−0.5"}]}
